Measurements from patent US8173632B2, “Process for the modification of the solid state of a compound and co-amorphous compositions produced with same” (priority 2007, dated 2012).
In brackets after ≈: the same amount, converted by molar mass. Entries after “also recorded” stand apart in the source; their conditions may differ.

Tests used:
[1] = literature reports; temperature as stated in value; cited from earlier work
[2] = room temperature; cited from earlier work
[3] = Room temperature storage stability of the non-crystalline / co-amorphous form against recrystallization; assay type: physicochemical; conditions: for stability of the non-crystalline / co-amorphous form, tendency to recrystallization (in words): room temperature storage
Description: The present invention is directed to stable crystalline and non-crystalline forms of organic compositions, particularly pharmaceutical compositions, that are stable at room temperature and to processes for producing the stable crystalline and non-crystalline forms with the process of the invention.
Within an hour of the evaporation, the system stabilized with 80 percent or more of the mass of the sample cured to a clear non-crystalline form rather than a crystalline form.
After the 6 months of storage, the laser treated aspirin was studied by PXRD.
(§1) Subsequent tests with the protocol of Example 1b were repeated with the order of long and short wavelengths reversed, i.e., short wavelength followed by long wavelength cycled sequenced laser treatment. This protocol also produced up to 90 percent yields of room temperature stable non-crystalline glass aspirin, which remained stable at room temperature for over 23 months. The Petri dish containing such a sample of non-crystalline aspirin was placed on edge for a period of about six weeks.
The glass cover was removed and the sample was allowed to desolvate in an open container through slow evaporation at about 20° C. and a relative humidity of 31 percent. Before the solvent had fully evaporated, the sample developed a few small areas of apparent crystallization that were surrounded with marker lines. As the evaporation continued, no significant extension of the crystal fronts was observed.

[4] = Petri dish with non-crystalline aspirin placed on edge (flow test); assay type: physicochemical; conditions: Petri dish placed on edge for about six weeks
Description: as §1

[5] = bulk form, same mass; cited from earlier work

Compound | stability of prior art aspirin forms against conversion / crystallization (in words) [1] | stability of the non-crystalline / co-amorphous form, tendency to recrystallization (in words) [3] | other results
CC(=O)Oc1ccccc1C(=O)O [Aspirin Form II, aspirin] | kinetically stable at 100 K (−173° C.), but converts back to Form I at ambient conditions |  | 
CC(=O)Oc1ccccc1C(=O)O [amorphous aspirin, aspirin] | converts rapidly to the crystalline Form I |  | 
CC(=O)Oc1ccccc1C(=O)O [crystalline aspirin, Aspirin] |  |  | solubility in water [2]: 3330 µg/mL (≈ 18.5 mM)
CC(=O)Oc1ccccc1C(=O)O [non-crystalline aspirin, Aspirin] |  | remain stable at room temperature for at least up to about a year; also recorded: stable at room temperature once the solvent had evaporated; also recorded: No crystallization has been observed in similarly prepared samples following an additional six months of storage | period of storage with no change in appearance of the sample ([3]; room temperature of about 18° to 22° C. and about 30 to 40 percent humidity, Example 1b): over 6 months; period the non-crystalline glass remained stable ([3]; room temperature, Example 1c, short wavelength followed by long wavelength): over 23 months; flowing of the sample [4]: No flowing of the sample was observed
O=C1[C@H](CC[C@H](O)c2ccc(F)cc2)[C@@H](c2ccc(O)cc2)N1c1ccc(F)cc1 [non-crystalline ezetimibe, Ezetimibe] |  | remained stable for five weeks; also recorded: resisted crystallization even when adjacent to an organizing crystal front | 
CC(=O)Oc1ccccc1C(=O)O [vitreous aspirin, aspirin] | did not crystallize for four to five days at 298K |  | dissolution of bulk vitreous aspirin compared with powdered crystals [5]: dissolve more slowly than the same mass of finely powdered crystals of aspirin
